From ChEMBL document CHEMBL1240532, “Spiroindolones, a potent compound class for the treatment of malaria” (Science, 2010)

Experiments:
Plasmodium falciparum [1] = assay: Antimalarial activity against pyrimethamine-resistant Plasmodium falciparum 7G8 after 48 hrs incubation by [3H]hypoxanthine incorporation assay
hERG (KCNH2) = hERG (KCNH2) (Homo sapiens, UniProt Q12809); assay: Inhibition of human ERG at 30 uM
Adenosine receptor A3 = Adenosine receptor A3 (Homo sapiens, UniProt P0DMS8); assay: Binding affinity to human recombinant adenosine 3 receptor
[2] = Binding affinity to human recombinant adenosine transporter
[3] = biological target: Beta-1 adrenergic receptor (Homo sapiens, UniProt P08588); assay: Binding affinity to human recombinant adrenergic beta-1 receptor
[4] = biological target: Beta-2 adrenergic receptor (Homo sapiens, UniProt P07550); assay: Binding affinity to human recombinant adrenergic beta2 receptor
[5] = biological target: Alpha-2A adrenergic receptor (Homo sapiens, UniProt P08913); assay: Binding affinity to human recombinant alpha-2a receptor
[6] = biological target: Type-1 angiotensin II receptor (Homo sapiens, UniProt P30556); assay: Binding affinity to human recombinant angiotensin2 AT1 receptor
B1 bradykinin receptor = B1 bradykinin receptor (Homo sapiens, UniProt P46663); assay: Binding affinity to human recombinant bradykinin B1 receptor
[7] = biological target: Cholecystokinin receptor type A (Homo sapiens, UniProt P32238); assay: Binding affinity to human recombinant cholecystokinin A receptor
[8] = biological target: Prostaglandin G/H synthase 2 (Homo sapiens, UniProt P35354); assay: Binding affinity to human recombinant COX2
D(2) dopamine receptor = D(2) dopamine receptor (Homo sapiens, UniProt P14416); assay: Binding affinity to human recombinant dopamine D2 receptor
D(3) dopamine receptor = D(3) dopamine receptor (Homo sapiens, UniProt P35462); assay: Binding affinity to human recombinant dopamine D3 receptor
D(4) dopamine receptor = D(4) dopamine receptor (Homo sapiens, UniProt P21917); assay: Binding affinity to human recombinant dopamine D4.4 receptor
Endothelin-1 receptor = Endothelin-1 receptor (Homo sapiens, UniProt P25101); assay: Binding affinity to human recombinant endothelin A receptor
[9] = biological target: Gastric inhibitory polypeptide receptor (Rattus norvegicus, UniProt P43219); assay: Binding affinity to rat Gip receptor
Glucocorticoid receptor = Glucocorticoid receptor (Homo sapiens, UniProt P04150); assay: Binding affinity to human recombinant glucocorticoid receptor
[10] = biological target: Growth hormone secretagogue receptor type 1 (Homo sapiens, UniProt Q92847); assay: Binding affinity to human recombinant Ghrelin receptor
Histamine H1 receptor = Histamine H1 receptor (Homo sapiens, UniProt P35367); assay: Binding affinity to human recombinant histamine H1 receptor
Melanocortin receptor 3 = Melanocortin receptor 3 (Homo sapiens, UniProt P41968); assay: Binding affinity to human recombinant melanocortin MC3 receptor
Substance-P receptor = Substance-P receptor (Homo sapiens, UniProt P25103); assay: Binding affinity to human recombinant neurokinin NK1 receptor
[11] = biological target: Neurotensin receptor type 1 (Homo sapiens, UniProt P30989); assay: Binding affinity to human recombinant neurotensin NT1 receptor
[12] = biological target: Hydroxycarboxylic acid receptor 2 (Homo sapiens, UniProt Q8TDS4); assay: Binding affinity to human recombinant niacin receptor
[13] = Binding affinity to human recombinant nicotinic (CNS) receptor
[14] = biological target: Delta-type opioid receptor (Homo sapiens, UniProt P41143); assay: Binding affinity to human recombinant opiate delta receptor
[15] = biological target: Sodium-dependent serotonin transporter (Homo sapiens, UniProt P31645); assay: Binding affinity to human recombinant serotonin transporter
Thromboxane A2 receptor = Thromboxane A2 receptor (Homo sapiens, UniProt P21731); assay: Binding affinity to human recombinant thromboxane A2 receptor
[16] = AUC (0 to infinity) in CD1 mouse at 5.4 mg/kg, iv; type: ADME, organism-based; set-up: time infinity, dose 5.4 mg/kg, route intravenous; settings: plasma
[17] = AUC (0 to infinity) in Wistar rat at 5 mg/kg, iv; type: ADME, organism-based; set-up: time infinity, dose 5 mg/kg, route intravenous; settings: plasma
[18] = Volume of distribution at steady state in Wistar rat at 5 mg/kg, iv; type: ADME, organism-based; set-up: dose 5 mg/kg, route intravenous; settings: in vivo, read-out: Vdss
[19] = Oral bioavailability in Wistar rat at 23.7 mg/kg; type: ADME, organism-based; settings: in vivo
[20] = Intrinsic clearance in mouse liver microsome; type: ADME; settings: liver microsomes
[21] = Intrinsic clearance in dog liver microsome; type: ADME, Canis lupus familiaris; settings: liver microsomes
[22] = Intrinsic clearance in human liver microsome; type: ADME; settings: liver microsomes
Plasmodium berghei [23] = assay: Antimalarial activity against Plasmodium berghei GFP ANKA infected in NMRI mice (Mus musculus) assessed as survival at 10 mg/kg, perorally administered as single dose as single dose 24 hrs post infection for 1 day measured 72 hrs post infection; type: functional; settings: route oral
Plasmodium berghei [24] = assay: Antimalarial activity against Plasmodium berghei GFP ANKA infected in NMRI mice (Mus musculus) assessed as cure rate at 30 mg/kg, perorally administered as single dose 24 hrs post infection for 1 day measured 30 days post infection; type: functional; settings: route oral
Plasmodium berghei [25] = assay: Antimalarial activity against Plasmodium berghei GFP ANKA infected in NMRI mice (Mus musculus) assessed as reduction in parasitaemia at 10 mg/kg, perorally administered through 0.5% MCM/0.1%solutol HS15 formulation 24 hrs post infection for 3 days measured 96 hrs post infection; type: functional; set-up: scale not given: the % may be the effect or the level left; settings: route oral
Plasmodium berghei [26] = assay: Antimalarial activity against Plasmodium berghei GFP ANKA infected in NMRI mice (Mus musculus) assessed as cure rate at 10 mg/kg, perorally administered through 0.5% MCM/0.1%solutol HS15 formulation 24 hrs post infection for 3 days measured on day 30 post infection; type: functional; settings: route oral
Plasmodium falciparum [27] = assay: Antimalarial activity against NITD609-resistant Plasmodium falciparum Dd2 Clone1 bearing P-type ATPase4 I398F and P990R mutations after 72 hrs by SYBR green based fluorescence assay; type: functional, organism-based; settings: Dd2, 72 h
Plasmodium falciparum [28] = assay: Antimalarial activity against NITD609-resistant Plasmodium falciparum Dd2 Clone2 bearing P-type ATPase4 T418N and P990R mutations after 72 hrs by SYBR green based fluorescence assay; type: functional, organism-based; settings: Dd2, 72 h
Plasmodium falciparum [29] = assay: Antimalarial activity against Plasmodium falciparum assessed as […] by SYBR green based fluorescence assay; type: functional, organism-based; settings: Plasmodium falciparum
Plasmodium berghei [30] = assay: Antimalarial activity against Plasmodium berghei GFP ANKA infected in NMRI mice (Mus musculus) assessed as reduction in parasitaemia dosed in ETPGS formulation 1 day post infection measured 72 hrs post infection; type: functional
[31] = Partition coefficient, log P of the compound at pH 7.4; type: physicochemical; settings: octanol/water
Plasmodium falciparum [32] = assay: Inhibition of protein synthesis in NITD609-resistant Plasmodium falciparum Dd2 Clone3 within 1 hrs by [35S]Met/Cys incorporation assay; type: functional
in vivo = settings: CD1, mouse, iv, 5.4 mg/kg
Plasmodium falciparum [33] = assay: microbe, parasite or virus in culture; settings: TM90C2A
Plasmodium falciparum [34] = assay: microbe, parasite or virus in culture; settings: Dd2, 72 h
Plasmodium falciparum [35] = assay: microbe, parasite or virus in culture; settings: Dd2, 72 h; remark: listed apart in the source

Chain of Thromboxane A2 receptor (P21731 whole entry): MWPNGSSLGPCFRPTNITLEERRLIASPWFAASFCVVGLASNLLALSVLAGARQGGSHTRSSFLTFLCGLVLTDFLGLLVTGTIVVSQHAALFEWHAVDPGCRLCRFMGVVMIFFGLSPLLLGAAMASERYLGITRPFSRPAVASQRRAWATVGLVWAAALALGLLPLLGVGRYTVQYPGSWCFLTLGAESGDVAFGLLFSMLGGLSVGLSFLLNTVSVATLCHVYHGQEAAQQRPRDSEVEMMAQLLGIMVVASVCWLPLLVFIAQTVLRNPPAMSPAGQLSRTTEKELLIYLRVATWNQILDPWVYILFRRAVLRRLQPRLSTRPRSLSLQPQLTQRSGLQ
Chain of Substance-P receptor (P25103 whole entry): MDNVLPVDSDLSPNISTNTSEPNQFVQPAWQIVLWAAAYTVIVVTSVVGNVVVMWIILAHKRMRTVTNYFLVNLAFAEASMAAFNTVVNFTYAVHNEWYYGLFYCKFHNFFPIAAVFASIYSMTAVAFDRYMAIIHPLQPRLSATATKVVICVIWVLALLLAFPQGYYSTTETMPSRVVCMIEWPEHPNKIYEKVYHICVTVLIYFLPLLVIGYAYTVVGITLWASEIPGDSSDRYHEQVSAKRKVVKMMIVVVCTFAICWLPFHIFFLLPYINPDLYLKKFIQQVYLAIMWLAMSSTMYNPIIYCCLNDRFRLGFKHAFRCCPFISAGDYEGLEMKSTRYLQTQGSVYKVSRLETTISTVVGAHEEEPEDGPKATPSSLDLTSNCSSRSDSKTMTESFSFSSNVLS
Chain of Beta-1 adrenergic receptor (P08588 whole entry): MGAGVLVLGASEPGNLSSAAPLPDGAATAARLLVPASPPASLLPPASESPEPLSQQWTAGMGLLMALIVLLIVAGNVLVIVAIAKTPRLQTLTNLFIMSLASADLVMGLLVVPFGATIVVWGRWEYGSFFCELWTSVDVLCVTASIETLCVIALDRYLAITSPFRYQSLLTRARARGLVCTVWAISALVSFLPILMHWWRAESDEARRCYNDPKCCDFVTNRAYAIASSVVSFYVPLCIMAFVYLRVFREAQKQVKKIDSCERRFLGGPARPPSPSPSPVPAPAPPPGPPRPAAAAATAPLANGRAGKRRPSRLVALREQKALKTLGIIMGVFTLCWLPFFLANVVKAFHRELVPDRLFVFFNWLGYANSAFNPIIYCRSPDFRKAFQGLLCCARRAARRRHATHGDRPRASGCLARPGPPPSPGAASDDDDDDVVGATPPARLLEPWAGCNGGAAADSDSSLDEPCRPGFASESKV
Chain of Endothelin-1 receptor (P25101 whole entry): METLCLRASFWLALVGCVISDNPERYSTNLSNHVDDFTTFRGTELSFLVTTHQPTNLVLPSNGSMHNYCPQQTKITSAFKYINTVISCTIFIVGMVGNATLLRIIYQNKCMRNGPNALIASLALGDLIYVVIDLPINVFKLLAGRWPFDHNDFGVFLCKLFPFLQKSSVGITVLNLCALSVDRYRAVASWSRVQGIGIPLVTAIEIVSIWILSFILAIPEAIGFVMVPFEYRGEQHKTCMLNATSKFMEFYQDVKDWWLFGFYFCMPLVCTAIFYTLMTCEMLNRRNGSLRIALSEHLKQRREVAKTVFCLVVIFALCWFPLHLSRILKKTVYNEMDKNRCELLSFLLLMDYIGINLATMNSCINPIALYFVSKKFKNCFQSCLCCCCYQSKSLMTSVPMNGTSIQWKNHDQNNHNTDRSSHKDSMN
Chain of Cholecystokinin receptor type A (P32238 whole entry): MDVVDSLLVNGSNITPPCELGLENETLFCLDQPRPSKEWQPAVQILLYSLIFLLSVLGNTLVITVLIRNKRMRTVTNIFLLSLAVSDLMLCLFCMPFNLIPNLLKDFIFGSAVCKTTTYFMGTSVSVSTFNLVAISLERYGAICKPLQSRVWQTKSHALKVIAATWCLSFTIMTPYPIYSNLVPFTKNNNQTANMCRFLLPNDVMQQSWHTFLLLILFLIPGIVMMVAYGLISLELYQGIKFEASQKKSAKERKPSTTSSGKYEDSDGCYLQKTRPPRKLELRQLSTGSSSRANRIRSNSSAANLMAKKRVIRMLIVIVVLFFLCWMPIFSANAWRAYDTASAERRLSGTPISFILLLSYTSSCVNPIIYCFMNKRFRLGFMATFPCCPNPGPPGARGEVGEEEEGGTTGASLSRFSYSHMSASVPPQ
Chain of D(2) dopamine receptor (P14416 whole entry): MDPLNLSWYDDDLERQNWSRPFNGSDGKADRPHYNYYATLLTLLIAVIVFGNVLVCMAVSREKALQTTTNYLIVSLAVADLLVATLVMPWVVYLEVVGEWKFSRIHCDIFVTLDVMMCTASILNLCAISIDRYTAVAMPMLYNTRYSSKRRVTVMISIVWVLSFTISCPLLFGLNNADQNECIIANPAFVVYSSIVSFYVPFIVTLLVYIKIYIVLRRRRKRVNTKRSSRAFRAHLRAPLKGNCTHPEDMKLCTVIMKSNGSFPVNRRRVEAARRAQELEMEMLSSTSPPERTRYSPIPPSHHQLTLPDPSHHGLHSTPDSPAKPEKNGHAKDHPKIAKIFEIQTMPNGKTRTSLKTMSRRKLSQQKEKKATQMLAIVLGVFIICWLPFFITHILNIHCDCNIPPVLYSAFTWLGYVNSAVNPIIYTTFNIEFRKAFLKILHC
Chain of Alpha-2A adrenergic receptor (P08913 whole entry): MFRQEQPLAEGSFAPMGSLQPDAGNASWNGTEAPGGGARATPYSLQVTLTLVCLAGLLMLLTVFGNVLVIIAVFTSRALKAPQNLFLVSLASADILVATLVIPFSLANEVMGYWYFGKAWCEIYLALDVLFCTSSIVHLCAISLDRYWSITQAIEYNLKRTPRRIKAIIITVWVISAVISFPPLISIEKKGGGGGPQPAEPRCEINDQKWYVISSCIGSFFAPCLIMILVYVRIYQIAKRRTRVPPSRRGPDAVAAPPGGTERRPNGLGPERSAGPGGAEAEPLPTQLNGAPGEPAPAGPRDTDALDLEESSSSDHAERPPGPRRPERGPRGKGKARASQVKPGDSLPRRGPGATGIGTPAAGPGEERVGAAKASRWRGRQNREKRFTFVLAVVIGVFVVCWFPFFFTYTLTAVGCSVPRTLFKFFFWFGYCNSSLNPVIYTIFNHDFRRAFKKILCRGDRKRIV
Chain of Delta-type opioid receptor (P41143 whole entry): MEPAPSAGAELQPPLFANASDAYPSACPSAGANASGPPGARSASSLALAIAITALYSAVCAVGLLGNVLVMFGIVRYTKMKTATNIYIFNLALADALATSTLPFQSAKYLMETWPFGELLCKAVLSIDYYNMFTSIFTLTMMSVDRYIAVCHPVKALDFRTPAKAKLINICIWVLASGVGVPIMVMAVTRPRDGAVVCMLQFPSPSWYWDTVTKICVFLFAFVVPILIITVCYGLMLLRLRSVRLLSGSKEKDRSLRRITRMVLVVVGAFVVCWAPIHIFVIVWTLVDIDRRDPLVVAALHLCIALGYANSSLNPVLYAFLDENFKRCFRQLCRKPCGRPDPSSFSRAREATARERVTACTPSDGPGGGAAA
Chain of Prostaglandin G/H synthase 2 (P35354 whole entry): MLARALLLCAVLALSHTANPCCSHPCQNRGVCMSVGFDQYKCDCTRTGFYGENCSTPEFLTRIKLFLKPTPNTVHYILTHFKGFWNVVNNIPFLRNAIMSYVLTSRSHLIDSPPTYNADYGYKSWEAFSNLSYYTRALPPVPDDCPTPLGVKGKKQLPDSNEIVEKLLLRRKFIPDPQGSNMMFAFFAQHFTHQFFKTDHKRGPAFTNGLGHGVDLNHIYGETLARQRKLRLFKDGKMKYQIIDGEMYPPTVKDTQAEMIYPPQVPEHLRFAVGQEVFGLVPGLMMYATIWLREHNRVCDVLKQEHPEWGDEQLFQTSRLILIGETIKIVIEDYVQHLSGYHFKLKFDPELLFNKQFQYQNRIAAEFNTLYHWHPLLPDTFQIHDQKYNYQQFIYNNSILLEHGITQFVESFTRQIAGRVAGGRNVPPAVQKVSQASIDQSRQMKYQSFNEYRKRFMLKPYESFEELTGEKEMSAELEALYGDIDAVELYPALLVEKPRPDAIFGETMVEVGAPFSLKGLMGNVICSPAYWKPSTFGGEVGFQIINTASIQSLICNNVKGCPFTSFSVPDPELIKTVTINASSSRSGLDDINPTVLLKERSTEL
Chain of D(4) dopamine receptor (P21917 whole entry): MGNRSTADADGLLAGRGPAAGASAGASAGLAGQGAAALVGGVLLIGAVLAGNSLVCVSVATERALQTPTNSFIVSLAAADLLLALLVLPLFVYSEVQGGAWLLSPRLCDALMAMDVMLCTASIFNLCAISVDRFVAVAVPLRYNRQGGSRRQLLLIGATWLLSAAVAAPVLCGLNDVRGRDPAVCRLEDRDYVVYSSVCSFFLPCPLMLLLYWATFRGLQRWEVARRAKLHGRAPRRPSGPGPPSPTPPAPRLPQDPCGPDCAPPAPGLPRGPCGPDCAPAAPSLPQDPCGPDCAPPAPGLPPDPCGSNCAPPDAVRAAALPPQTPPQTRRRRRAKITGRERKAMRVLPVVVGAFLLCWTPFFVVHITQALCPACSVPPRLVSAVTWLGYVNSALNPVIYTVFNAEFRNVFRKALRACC
Chain of Growth hormone secretagogue receptor type 1 (Q92847 whole entry): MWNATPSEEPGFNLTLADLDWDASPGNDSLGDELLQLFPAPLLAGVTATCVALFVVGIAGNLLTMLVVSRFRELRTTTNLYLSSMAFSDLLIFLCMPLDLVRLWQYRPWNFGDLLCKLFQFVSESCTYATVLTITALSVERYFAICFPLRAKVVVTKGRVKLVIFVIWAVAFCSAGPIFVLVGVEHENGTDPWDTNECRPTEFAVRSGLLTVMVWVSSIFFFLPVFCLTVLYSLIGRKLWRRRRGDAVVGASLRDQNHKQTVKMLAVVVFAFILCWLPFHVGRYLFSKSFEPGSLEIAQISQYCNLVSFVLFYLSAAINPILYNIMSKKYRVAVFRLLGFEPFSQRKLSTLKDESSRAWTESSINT

Q: Which results are given for `C[C@H]1Cc2c([nH]c3cc(Cl)c(F)cc23)[C@@]2(N1)C(=O)Nc1ccc(Cl)cc12` [CIPARGAMIN]?
A: IC50 (Plasmodium falciparum [1]): 0.0012 µM; inhibition at 30 µM (hERG (KCNH2)): 52%; IC50 (Adenosine receptor A3): 8.3 µM; IC50 [2]: > 30 µM; IC50 [3]: > 10 µM; IC50 [4]: > 10 µM; IC50 [5]: > 10 µM; IC50 [6]: > 30 µM; IC50 (B1 bradykinin receptor): > 30 µM; IC50 [7]: > 30 µM; IC50 [8]: > 30 µM; IC50 (D(2) dopamine receptor): > 10 µM; IC50 (D(3) dopamine receptor): > 10 µM; IC50 (D(4) dopamine receptor): > 10 µM; IC50 (Endothelin-1 receptor): > 30 µM; IC50 [9]: > 30 µM; IC50 (Glucocorticoid receptor): > 30 µM; IC50 [10]: > 30 µM; IC50 (Histamine H1 receptor): > 10 µM; IC50 (Melanocortin receptor 3): > 30 µM; IC50 (Substance-P receptor): > 10 µM; IC50 [11]: > 10 µM; IC50 [12]: > 10 µM; IC50 [13]: > 10 µM; IC50 [14]: > 10 µM; IC50 [15]: > 10 µM; IC50 (Thromboxane A2 receptor): > 30 µM; AUC(0-inf) [16]: 23.9 µM·h; AUC(0-inf) [17]: 61.3 µM·h; Vd [18]: 3.04 L/kg; bioavailability [19]: 100%; CLint scaled [20]: 49.7 mL/min/kg; CLint scaled [21]: 22.1 mL/min/kg; CLint scaled [22]: 8.67 mL/min/kg; mean survival time at 10 mg/kg (Plasmodium berghei [23]): 13.3 days; Activity (Plasmodium berghei [24]): 50%; Activity (Plasmodium berghei [25]): […]; Activity (Plasmodium berghei [26]): 50%; IC50 (Plasmodium falciparum [27]): 0.0109 µM; IC50 (Plasmodium falciparum [28]): 0.0037 µM; IC50 (Plasmodium falciparum [29]): 0.0005 µM; ED50 (Plasmodium berghei [30]): 1.2 mg/kg; ED99 (Plasmodium berghei [30]): 5.3 mg/kg; logD [31]: 4.7; inhibition (INH) (Plasmodium falciparum [32]): 50%; half-life (in vivo): 3.44 h; IC50 (Plasmodium falciparum [33]): 0.0005 µM; IC50 (Plasmodium falciparum [34]): 0.0028 µM; IC50 (Plasmodium falciparum [35]): 0.0039 µM
